Test results from patent US11261478B2, “Thermal stable luciferase with improved resistance to inhibition by luciferin break-down products” (priority 2016, dated 2022).

Experiments:
[1] = target: T1, UltraGlo luciferase (parent, ULTRA GLO luciferase, SEQ ID NO: 3) (Photuris pensylvanica, UniProt Q27757, A101V/A17E/A262V/C221A/D34A/D353K/D394P/E2A/F294L/F367L/F500Y/G84S/H14Y/H220I/I125V/I173S/K413N/L193S/L91V/N183Y/N412D/N499D/P295A/R357K/S105N/S204P/S36P/S399G/S502A/T234S/T249M/T354G/T386P/V145I/V194I/V203L/V300C/V356A/Y144S/Y27D); test: Competitive inhibition of F-luciferin luminescence by dehydro-F-luciferin, purified UltraGlo luciferase; format: biochemical; conditions: F-luciferin 1 mM, ATP 0.5 mM final, 3 minutes at room temperature, Michaelis-Menten competitive inhibition model
T1 construct: full length, 552 aa
T1 sequence (Q27757 other isoform, or with tags, fused parts or gaps with the stated changes): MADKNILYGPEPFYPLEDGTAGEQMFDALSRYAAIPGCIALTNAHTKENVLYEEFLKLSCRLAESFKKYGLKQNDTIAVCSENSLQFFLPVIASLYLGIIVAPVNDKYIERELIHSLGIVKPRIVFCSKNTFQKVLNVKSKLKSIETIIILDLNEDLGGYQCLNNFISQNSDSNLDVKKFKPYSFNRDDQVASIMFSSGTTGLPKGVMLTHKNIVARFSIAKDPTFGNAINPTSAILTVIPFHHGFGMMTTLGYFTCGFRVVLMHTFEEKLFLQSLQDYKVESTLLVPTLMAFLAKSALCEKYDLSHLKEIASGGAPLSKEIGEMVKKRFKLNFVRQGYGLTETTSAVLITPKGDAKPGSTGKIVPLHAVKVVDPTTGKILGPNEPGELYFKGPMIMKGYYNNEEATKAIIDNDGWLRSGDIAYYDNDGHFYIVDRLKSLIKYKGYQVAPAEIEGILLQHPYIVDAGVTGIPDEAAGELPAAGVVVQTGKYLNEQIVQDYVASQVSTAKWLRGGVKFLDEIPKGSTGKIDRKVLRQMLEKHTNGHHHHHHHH
Protocol: (§1) To explore the inhibition of F-luciferin luminescence by dehydro-F-luciferin by combination mutants, the mutant Triple+300 (H244W, T344A, I396K, C300G) was screened for its resistance to dehydroluciferin.
(§2) Purified UltraGlo and Triple+300 luciferase enzymes were serially diluted from stocks in 1×TBS+1.0% Prionex to a concentration of 0.01 mg/ml. Racemic F-luciferin was serially diluted from stocks in water to 22 mM. Racemic dehydro-F-luciferin was serially diluted from stocks in water to 10 mM, and then 8 consecutive 4-fold serial dilutions were carried out for each concentration tested. ATP was diluted to 1 mM in BrightGlo Buffer or Detection Reagent buffer (depending on final reaction destination) to 1 mM concentration.
(§3) The following components were then combined into wells of a flat bottom, white, 96-well plate: 50 ul diluted ATP in buffer (BrightGlo or Detection Reagent; 0.5 mM final concentration), 50 ul diluted luciferase enzyme ([…] final concentration), 5 ul diluted F-luciferin (1 mM final concentration), and 4 ul diluted dehydro-F-luciferin ([…] final concentration)
(§4) Reactions were incubated for 3 minutes at room temperature, and luminescence was measured using a GloMax Multi+plate reader. Data were analyzed in GraphPad Prism 7 using nonlinear regression by fitting the data to a Michaelis-Menten competitive inhibition enzyme kinetic model.

[2] = target: UltraGlo luciferase variant Triple+300 (H244W, T344A, I396K, C300G), SEQ ID NO: 11 (Photuris pensylvanica, UniProt Q27757, A101V/A17E/A262V/C221A/D34A/D353K/D394P/E2A/F294L/F367L/F500Y/G84S/H14Y/H220I/H244W/I125V/I173S/I396K/K413N/L193S/L91V/N183Y/N412D/N499D/P295A/R357K/S105N/S204P/S36P/S399G/S502A/T234S/T249M/T344A/T354G/T386P/V145I/V194I/V203L/V300G/V356A/Y144S/Y27D); test: Competitive inhibition of F-luciferin luminescence by dehydro-F-luciferin, purified Triple+300 luciferase mutant; format: biochemical; conditions: F-luciferin 1 mM, ATP 0.5 mM final, 3 minutes at room temperature, Michaelis-Menten competitive inhibition model
UltraGlo luciferase variant Triple+300 (H244W, T344A, I396K, C300G), SEQ ID NO: 11, sequence (Q27757 other isoform, or with tags, fused parts or gaps with the stated changes): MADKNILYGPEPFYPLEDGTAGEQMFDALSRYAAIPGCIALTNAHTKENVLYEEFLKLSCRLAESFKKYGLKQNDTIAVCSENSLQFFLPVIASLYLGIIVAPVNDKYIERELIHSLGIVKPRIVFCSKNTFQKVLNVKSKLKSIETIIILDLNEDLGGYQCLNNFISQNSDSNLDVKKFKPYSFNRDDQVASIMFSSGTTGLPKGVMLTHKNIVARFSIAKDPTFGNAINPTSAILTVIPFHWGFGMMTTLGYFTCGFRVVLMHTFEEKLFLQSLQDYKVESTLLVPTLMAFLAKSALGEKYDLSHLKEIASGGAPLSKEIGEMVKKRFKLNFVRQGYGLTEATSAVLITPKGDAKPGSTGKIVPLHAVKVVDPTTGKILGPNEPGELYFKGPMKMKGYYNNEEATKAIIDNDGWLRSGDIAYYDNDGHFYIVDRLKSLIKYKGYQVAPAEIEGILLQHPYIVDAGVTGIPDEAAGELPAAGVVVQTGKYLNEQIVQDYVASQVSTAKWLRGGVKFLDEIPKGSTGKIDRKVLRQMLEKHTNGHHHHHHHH
Protocol: as §1, §2, §3, §4

O=C(O)c1csc(-c2nc3cc(F)c(O)cc3s2)n1 [dehydro-F-luciferin]
Ki ([1]; BrightGlo buffer): 39.9 nM
Ki ([1]; Detection Reagent buffer): 420 nM
Ki ([2]; BrightGlo buffer): 71.8 nM
Ki ([2]; Detection Reagent buffer): 563 nM
